Laboratory results published in patent US9062051B2, “Compounds and pharmaceutical compositions thereof for the treatment of proliferative disorders” (GALAPAGOS NV, priority 2014, dated 2015).

Key:
EphA4 = target: T1, EphA4 (UniProt Ref: P54764) (Homo sapiens, UniProt P54764); assay: EphA4 assay (Reaction Biology HotSpot radioactive kinase assay); type: biochemical; conditions: EphA4 potency; ATP 10 μM
T1 construct: purchased Reaction Biology
Experimental: (§1) Inhibition of EphA4 (UniProt Ref: P54764) by a test compound is determined by a commercially available Reaction Biology proprietary nanoliter radioactive HotSpot^SM assay (Reaction Biology, One great valley parkway, Suite 2, Malvern Pa., 19355, USA). The principle of the assay consists of the measurement of incorporated ^33P into poly[Glu:Tyr] (4:1) (0.2 mg/mL) when the substrate is phosphorylated by the enzyme using [^33P]-γ-ATP and ATP (10 μM).
(§2) To determine the IC50, a serial dilution of compound is tested starting from 10 or 3 μM (highest dilution) with a 1/3 dilution.

EphA2 = target: T2, EphA2 (UniProt Ref: P29317) (Homo sapiens, UniProt P29317); assay: EphA2 assay (Reaction Biology HotSpot radioactive kinase assay); type: biochemical; conditions: ATP 10 μM; read-out: EphA2 potency IC50
T2 construct: purchased Reaction Biology
Outline: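 Radiometric HotSpot assay measuring ^33P incorporation from [^33P]-γ-ATP into poly[Glu:Tyr] (4:1) (0.2 mg/mL) with 10 μM ATP. IC50 from serial 1/3 dilutions starting at 10 or 3 μM.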

[1] = Pharmacokinetics in mice (exposure, AUC); type: in vivo; conditions: male, CD1, plasma; mouse, 30 mg/kg, po
Experimental: This study was performed with 42 naïve male CD1 mice (18-20 g, 4-5 weeks old). Mice are obtained from Janvier, Le Genest St Isle, France.
A controlled environment was maintained in the room with optimal conditions of approximately 15 air changes per hour, a temperature of 22±2 C, a relative humidity of 30-70% and a 12 hour light/12 hour dark cycle (nightlight during the night period).
Pelleted diet for rodents (UAR A04C-10) was used and was provided ad libitum. Before p.o. dosing, the animals are deprived of food for at least 12 hours before compound administration and 4 hours after administration. All animals had free access to tap water.
[…] The i.v. bolus administration is given with a dose volume of 5 mL/kg and the oral administration is given with a dose volume of 10 mL/kg. Actual dose volumes are based on the mean of 10 body weights.
The vehicle used to formulate compounds for oral administration is methylcellulose in water (0.5% in water)
From all animals approximately 500 μL blood samples are collected by intra-cardiac puncture under gaseous anesthesia and placed into tubes containing Li-heparin as anticoagulant. Blood samples are collected at various time points (i.v.: 0.05, 0.25, 0.5, 1, 3, 5 and 8 hours after dosing; p.o.: 0.25, 0.5, 1, 3, 5, 8 and 24 hours after dosing). Each mouse is sampled once and euthanized.
Blood is kept on ice. Within 1 hour after sampling, blood is centrifuged at 5,000 rpm for 10 min at 4° C. Immediately after centrifugation, the resulting plasma samples are collected into polypropylene tubes and are kept frozen at −20° C. pending bioanalysis.
Plasma samples are assayed by LC-MS/MS. Plasma proteins are precipitated with an excess of methanol containing the internal standard and the corresponding supernatant is injected on a C18 column. Analytes are eluted out the HPLC system by increasing the percentage of the organic mobile phase. An API4000 mass spectrometer (AB Sciex™) is used for the detection and quantification.
Pharmacokinetic parameters are calculated by non-compartmental analysis using WinNonlin® software (Pharsight, version 5.2).

EphB4 = target: T3, EphB4 (UniProt Ref: Q541P7) (Homo sapiens, UniProt P54760); assay: EphB4 assay (Reaction Biology HotSpot radioactive kinase assay); type: biochemical; conditions: ATP 10 μM; read-out: EphB4 potency IC50
T3 construct: purchased Reaction Biology
T3 sequence (P54760 16-987): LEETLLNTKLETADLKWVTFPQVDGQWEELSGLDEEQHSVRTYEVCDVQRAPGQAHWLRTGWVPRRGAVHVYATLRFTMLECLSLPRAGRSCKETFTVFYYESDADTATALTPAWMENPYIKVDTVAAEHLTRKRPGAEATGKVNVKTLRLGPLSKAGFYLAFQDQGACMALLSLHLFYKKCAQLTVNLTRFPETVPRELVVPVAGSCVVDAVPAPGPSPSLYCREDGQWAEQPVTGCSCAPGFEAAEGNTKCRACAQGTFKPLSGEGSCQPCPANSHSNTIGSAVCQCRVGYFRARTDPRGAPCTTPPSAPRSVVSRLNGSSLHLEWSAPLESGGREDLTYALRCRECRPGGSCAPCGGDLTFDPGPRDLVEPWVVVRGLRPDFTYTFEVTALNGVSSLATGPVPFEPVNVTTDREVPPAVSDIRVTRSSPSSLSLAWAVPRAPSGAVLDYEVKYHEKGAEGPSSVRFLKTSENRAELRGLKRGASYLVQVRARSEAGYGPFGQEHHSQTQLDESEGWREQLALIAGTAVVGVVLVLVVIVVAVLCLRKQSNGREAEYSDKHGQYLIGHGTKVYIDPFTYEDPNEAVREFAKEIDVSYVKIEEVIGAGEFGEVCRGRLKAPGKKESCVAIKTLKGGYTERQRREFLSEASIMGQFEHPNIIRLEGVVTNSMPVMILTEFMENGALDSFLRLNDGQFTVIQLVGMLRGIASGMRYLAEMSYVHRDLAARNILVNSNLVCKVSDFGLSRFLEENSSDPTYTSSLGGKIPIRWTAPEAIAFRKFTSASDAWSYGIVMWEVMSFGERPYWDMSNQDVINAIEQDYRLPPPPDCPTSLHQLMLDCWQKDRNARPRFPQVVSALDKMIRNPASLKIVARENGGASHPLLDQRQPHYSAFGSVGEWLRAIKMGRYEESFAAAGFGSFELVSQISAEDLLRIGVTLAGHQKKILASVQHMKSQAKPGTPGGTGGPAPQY
Experimental: as §1, with “EphB4” for “EphA4”, “Q541P7)” for “P54764)”
as §2

T1 sequence (P54764 20-986): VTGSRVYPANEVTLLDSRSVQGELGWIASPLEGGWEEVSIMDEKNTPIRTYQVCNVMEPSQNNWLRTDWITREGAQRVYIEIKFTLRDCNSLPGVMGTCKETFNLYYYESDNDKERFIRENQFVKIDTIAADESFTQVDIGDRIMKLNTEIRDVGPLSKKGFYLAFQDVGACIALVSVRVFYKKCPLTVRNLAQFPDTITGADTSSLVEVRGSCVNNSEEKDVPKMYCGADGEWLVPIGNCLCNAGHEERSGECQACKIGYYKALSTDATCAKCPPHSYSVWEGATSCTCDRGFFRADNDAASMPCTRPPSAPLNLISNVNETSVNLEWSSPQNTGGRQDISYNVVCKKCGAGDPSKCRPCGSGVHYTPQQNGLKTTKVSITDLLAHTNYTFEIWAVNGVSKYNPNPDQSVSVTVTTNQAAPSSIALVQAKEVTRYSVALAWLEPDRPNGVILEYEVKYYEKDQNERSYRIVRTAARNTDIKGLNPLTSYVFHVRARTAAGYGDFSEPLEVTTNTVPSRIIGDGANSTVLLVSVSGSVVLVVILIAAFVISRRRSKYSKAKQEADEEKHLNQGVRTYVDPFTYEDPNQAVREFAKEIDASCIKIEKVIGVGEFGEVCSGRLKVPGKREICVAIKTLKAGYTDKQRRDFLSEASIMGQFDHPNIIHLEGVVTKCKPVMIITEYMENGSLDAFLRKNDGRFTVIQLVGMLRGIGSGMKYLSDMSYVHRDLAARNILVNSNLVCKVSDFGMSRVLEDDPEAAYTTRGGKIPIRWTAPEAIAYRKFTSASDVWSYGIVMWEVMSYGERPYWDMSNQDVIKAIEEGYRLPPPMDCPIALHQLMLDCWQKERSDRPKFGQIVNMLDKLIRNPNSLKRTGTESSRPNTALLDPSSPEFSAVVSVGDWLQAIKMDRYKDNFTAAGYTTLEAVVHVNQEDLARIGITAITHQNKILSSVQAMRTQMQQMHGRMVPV
T2 sequence (P29317 24-976): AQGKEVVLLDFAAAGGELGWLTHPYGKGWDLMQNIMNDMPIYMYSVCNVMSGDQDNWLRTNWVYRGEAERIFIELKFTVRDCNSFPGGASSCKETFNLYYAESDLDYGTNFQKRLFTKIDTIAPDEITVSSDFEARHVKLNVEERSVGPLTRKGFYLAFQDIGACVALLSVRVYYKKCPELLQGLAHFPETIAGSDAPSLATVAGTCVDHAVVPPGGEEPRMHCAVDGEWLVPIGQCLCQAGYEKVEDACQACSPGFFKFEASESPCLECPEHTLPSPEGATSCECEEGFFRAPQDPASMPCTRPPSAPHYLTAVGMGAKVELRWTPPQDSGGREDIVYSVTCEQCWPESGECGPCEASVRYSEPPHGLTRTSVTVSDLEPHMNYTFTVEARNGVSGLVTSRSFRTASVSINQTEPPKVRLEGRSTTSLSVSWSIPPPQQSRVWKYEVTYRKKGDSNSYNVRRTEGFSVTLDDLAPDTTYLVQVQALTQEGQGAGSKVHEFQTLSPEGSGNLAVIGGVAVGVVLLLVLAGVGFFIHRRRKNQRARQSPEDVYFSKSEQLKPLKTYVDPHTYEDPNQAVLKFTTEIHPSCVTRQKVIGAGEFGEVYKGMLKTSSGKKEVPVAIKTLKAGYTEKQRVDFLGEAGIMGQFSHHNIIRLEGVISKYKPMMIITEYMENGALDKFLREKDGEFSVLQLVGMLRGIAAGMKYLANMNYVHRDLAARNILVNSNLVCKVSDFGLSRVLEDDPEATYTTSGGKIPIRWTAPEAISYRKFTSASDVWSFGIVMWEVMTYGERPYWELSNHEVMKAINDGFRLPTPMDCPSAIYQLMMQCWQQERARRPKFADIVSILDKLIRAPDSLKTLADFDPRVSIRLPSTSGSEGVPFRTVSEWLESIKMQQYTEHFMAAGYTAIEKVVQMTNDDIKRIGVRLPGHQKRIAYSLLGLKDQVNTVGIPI

COc1cc(OC)cc(C(=O)Nc2ccc(C)c(-c3ccc4c([C@H](C)O)n[nH]c4n3)c2)c1 [Compound 47, N-{3-[3-((S)-1-Hydroxy-ethyl)-1H-pyrazolo[3,4-b]pyridin-6-yl]-4-methyl-phenyl}-3,5-dimethoxy-benzamide]
IC50 (EphA4): 50 to 100 nM
IC50 (EphA2): 0.01 to 25 nM
AUC [1]: 39000 ng·h/mL
IC50 (EphB4): 0.01 to 25 nM
